In US7037717B1, “Cell line and screening method with the use of the same” (Chugai Seiyaku Kabushiki Kaisha, priority 1997, dated 2006):

How the values were obtained:
CL-1 cells [1] = assay: Differentiation of CL-1 cells into adipocytes, Oil red O-positive lipid droplets; assay type: cell-based, mouse
Experimental: Influences of 1,25-dihydroxyvitamin D3 known to inhibit conversion of a adipocyte precursor cell line 3T3-L1 into adipocytes (Comp. Biochem. Physiol. 96A, (1990)) on differentiation of CL-1 cells into adipocytes were examined. CL-1 cells were cultured on a 4-well chamber slide (Nunc) at a cell density of 2500 cells/cm^2 to confluent, after which 1,25-dihydroxyvitamin D3 was added at a final concentration of […] for each medium change.

CL-1 cells [2] = assay: Calcification of CL-1 cells, Ca deposition per dish (O-CPC method); assay type: cell-based, mouse; conditions: 10^−9, 10^−8 or 10^−7 M; vs solvent control, on and after 2 weeks post confluent
Experimental: CL-1 cells were cultured on a 60-mm dish (CORNING) at a cell density of 2000 cells/cm^2. When cells reached to confluent, 1,25-dihydroxyvitamin D3 was added at a final concentration of 10^−9, 10^−8 or 10^−7 M, then samples were weekly collected for 4 weeks post confluent to determine the Ca content with time. Namely, cell layers were washed with Ca-Mg-free PBS three times, then harvested in a crucible with a cell scraper (Nunc), then dried in an incubator at 60° C., then burned overnight in an oven at 800° C., and the remaining ash was dissolved in 500 μl of 6N hydrochloric acid (Wako Pure Chemical Industries). The Ca content in this solution was determined by the O-CPC method (Ca test Wako, available from Wako Pure Chemical Industries) to calculate the Ca deposition per dish.

CL-1 cells [3] = assay: Stainability of CL-1 cells with Alcian blue (pH 1.0), cartilage-inducing ability; assay type: cell-based, mouse; conditions: for Alcian blue (pH 1.0)-positive nodules: morphologically, compared with the medium alone
Experimental: In order to examine whether or not CL-1 cells can be used as an in vitro screening system for cartilage-inducing materials, effects of hTGF-β, known to have cartilage-inducing ability (J. Biol. Chem. 261, 5693 (1986)) on the stainability of CL-1 cells with Alcian blue (pH 1.0) were examined. Namely, CL-1 cells were cultured on a 24-well plate (CORNING) at a cell density of 2500 cells/cm^2 to confluent, at which human transforming growth factor-β1 (hTGF-β1; AUSTRAL Biologicals) was added at a concentration of 0.1, 1.0 or 10 ng/ml, and cultivation took place for 3 weeks after the start of the addition with the medium being changed every 2 or 3 days. The addition of hTGF-β1 was performed for each medium change. After completion of cultivation, cells were fixed in 4% paraformaldehyde (Wako Pure Chemical Industries) and washed with water, then treated with 0.1 N hydrochloric acid (Wako Pure Chemical Industries) for 3 minutes, and then stained overnight with an Alcian blue (pH 1.0) solution (concentration: 1%). After completion of staining, samples were washed with distilled water three times and air-dried. The dried samples were immersed in 300 μl of a 6 M guanidine hydrochloride solution (Wako Pure Chemical Industries) for 3 hours and stirred, after which the absorbance of the guanidine hydrochloride solution at 620 nm was determined.

CL-1 cells [4] = assay: Alizarin red S staining of CL-1 nodules; assay type: cell-based, mouse; conditions: 10 mM in medium, cultured one month
Experimental: CL-1 cells were similarly cultured in the medium supplemented with 10 mM β-glycerophosphate. Then, they were fixed in 4% paraformaldehyde (pH 7.4), washed with distilled water, then stained with a 1% Alizarin red S (Merck) solution for 5 minutes, washed with water and then observed with naked eyes and with an optical microscope.

CL-1 cells [5] = assay: Uptake of 35S-labeled sulfuric acid into CL-1 cell layers; assay type: cell-based, mouse
Experimental: CL-1 cells were plated on a polystyrene 96-well plate (Wallac) at a cell density of 2000 cells/well, and incubated in (α-MEM (GIBCO) containing 10% inactivated serum (Intergen), 100 U/ml penicillin and 100 μg/ml streptomycin in an incubator at 37° C., 5% CO2, with the medium being changed with a fresh medium 3 times a week to reach confluency. After confluency was confirmed with a microscope, the medium was changed with a fresh medium containing human TGF-β1 (AUSTRAL BIOLOGICALS) at a concentration of 0.1, 1.0 or 10 ng/ml and incubation was continued. After 24 hours, ^35S-labeled sulfuric acid (Amersham) was added at 0.5 μCi/well and incubation was continued for further 24 hours. Then, the medium was changed with 200 μl of 0.1 M phosphate buffer (pH 7.4) containing 5% paraformaldehyde (Wako Pure Chemical Industries) and 0.4% cetylpyridinium chloride (Wako Pure Chemical Industries) for fixation at room temperature for 2 hours. After CL-1 cell layers were washed once with the same buffer, 100 μl of a liquid scintillator (Optiphase supermix, available from Wallac) was added to each well followed by stirring, so that the radioactivity of ^35S-labeled sulfuric acid incorporated into CL-1 cell layers was determined by a liquid scintillation counter (Microbeta 1450, available from Wallac).

ATDC-5 cells = assay: Stainability of ATDC-5 cells with Alcian blue (pH 1.0); assay type: cell-based; conditions: 10 μg/ml insulin and 0.1 to 10 ng/ml hTGF-β1, 7 days post confluent
Experimental: ATDC-5 cells known to differentiate into chondrocytes in the presence of insulin (Cell Diff. Dev. 30, 109 (1990); available from the Cell Bank of The Institute of Physical and Chemical Research) were also cultured by the same procedure in the presence of 10 μg/ml of insulin and 0.1 to 10 ng/ml of hTGF-β1 for 7 days post confluent to examine the stainability with Alcian blue (pH 1.0).

CL-1 cells [6] = assay: Cartilage destruction: Alcian blue stainability of hTGF-β1-enhanced CL-1 cells; assay type: cell-based, mouse
Experimental: This example relates to an examination about whether or not cartilage-like nodules formed by culturing CL-1 cells in the presence of hTGF-β1 are destroyed by inflammatory cytokines IL-1 or TNF-α. CL-1 cells were cultured on a 24-well plate (CORNING) at a cell density of 2500 cells/cm^2 to confluent, after which hTGF-β1 was daily added to the medium for 5 days at a final concentration of 1.0 ng/ml. Then, mouse interleukin 1α (mIL-1α; R & D systems) and mouse tumor necrosis factor-a (mTNF-α; R & D systems) were daily added to the medium for 5 days at a final concentration of 0.1, 1.0 or 10 ng/ml, and the cells were cultured. Then, the stainability of CL-1 cells with Alcian blue (pH 1.0) was determined as described hereinbefore. As a result, the stainability with Alcian blue (pH 1.0) decreased in the presence of mIL-1α at 0.1 ng/ml or more (see FIG. 15) and mTNF-α at 1.0 ng/ml or more (see FIG. 16).

Question: What does the source list for C=C1/C(=C\C=C2/CCC[C@]3(C)[C@@H]([C@H](C)CCCC(C)(C)O)CC[C@@H]23)C[C@@H](O)C[C@@H]1O [1,25-dihydroxyvitamin D3]?
Answer: intracellular accumulation of Oil red O-positive lipid droplets (CL-1 cells [1]; 10^−3 M at each medium change, 3 weeks): remarkably inhibits; amount of Ca deposition (CL-1 cells [2]): significantly inhibited

Question: Which “accumulation of Oil red O-positive lipid droplets in CL-1 cells” value (CL-1 cells [1]; compared with the medium alone) does the source give for “hIGF-I: human insulin-like growth factor-I (CHEMICON INTERNATIONAL)” here?
Answer: promoted

Question: And the “stainability with Alcian blue (pH 1.0)” value (CL-1 cells [3]; 100 ng/ml, similar test, 3 weeks)?
Answer: increase

Question: What about the “Alcian blue (pH 1.0)-positive nodules” value (CL-1 cells [3]; 3 weeks post confluent) of the same molecule?
Answer: clearly increased

Question: For O=P(O)(O)OC(CO)CO [β-glycerophosphate], which “Alizarin red S staining of nodules” value (CL-1 cells [4]) is on record?
Answer: turned positive

Question: For “hTGF-β1: human transforming growth factor-β1 (AUSTRAL Biologicals), known to have cartilage-inducing ability”, which “increase of the uptake of 35S-labeled sulfuric acid” value (CL-1 cells [5]; 0.1, 1.0 or 10 ng/ml, FIG. 21) is on record?
Answer: about double

Question: And the “concentration with statistically significant increase of the uptake of 35S-labeled sulfuric acid” value (CL-1 cells [5]; vs control containing the medium alone, 48 h after addition)?
Answer: ≥ 0.1 ng/mL

Question: And the “stainability of ATDC-5 cells with Alcian blue (pH 1.0)” value (ATDC-5 cells)?
Answer: dose-dependently decreased

Question: What about the “stainability with Alcian blue (pH 1.0)” value (CL-1 cells [3]; 0.1, 1.0 or 10 ng/ml added at each medium change, 3 weeks post confluent, absorbance at 620 nm) of the same molecule?
Answer: increased dose-dependently

Question: And the “Alcian blue (pH 1.0)-positive nodules” value (CL-1 cells [3]; 3 weeks post confluent)?
Answer: clearly increased

B1: mIL-1α: mouse interleukin 1α (R & D systems), inflammatory cytokine (protein, UniProt P01582 115-270, looked up)
Interleukin-1 alpha: SAPYTYQSDLRYKLMKLVRQKFVMNDSLNQTIYQDVDKHYLSTTWLNDLQQEVKFDMYAYSSGGDDSKYPVTLKISDSQLFVSAQGEDQPVLLKELPETPKLITGSETDLIFFWKSINSKNYFTSAAYPELFIATKEQSRVHLARGLPSMTDFQIS
Question: How did the “destruction of cartilage-like tissues formed by CL-1 cells in the presence of human TGF-β1” value (CL-1 cells [6]) turn out when B1 was run?
Answer: destroyed

Question: And the “concentration at which stainability with Alcian blue (pH 1.0) decreased” value (CL-1 cells [6]; daily added for 5 days after 5 days of hTGF-β1 1.0 ng/ml)?
Answer: ≥ 0.1 ng/ml
